This assay concerns the target T1, M4 receptor (Homo sapiens, UniProt P08173).
T1 construct: expressed in transfected cells; host or cells: CHO (M4-CHO cells)
T1 sequence (P08173 1-479): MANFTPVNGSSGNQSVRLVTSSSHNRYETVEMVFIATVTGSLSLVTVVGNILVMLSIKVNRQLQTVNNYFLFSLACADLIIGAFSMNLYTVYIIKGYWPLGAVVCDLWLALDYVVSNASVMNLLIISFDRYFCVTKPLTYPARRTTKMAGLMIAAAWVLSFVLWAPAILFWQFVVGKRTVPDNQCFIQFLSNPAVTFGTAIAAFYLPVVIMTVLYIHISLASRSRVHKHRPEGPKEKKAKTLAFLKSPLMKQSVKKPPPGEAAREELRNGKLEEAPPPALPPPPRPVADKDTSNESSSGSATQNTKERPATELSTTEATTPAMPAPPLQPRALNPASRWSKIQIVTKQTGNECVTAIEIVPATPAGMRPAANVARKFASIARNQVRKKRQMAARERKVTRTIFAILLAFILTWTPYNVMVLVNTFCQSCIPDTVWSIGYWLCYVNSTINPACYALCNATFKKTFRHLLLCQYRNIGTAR
Description: PAM agonistic activity of compound on M4 receptor (FLIPR Calcium 6 assay in M4-CHO cells). The assay is classed as cell-based. The following applies: with acetylcholine (Ach), final concentration 3 nM. The procedure: • 1). Cell plating: M4-CHO cells were digested, collected, and resuspended. After cell counting, the cell suspension was seeded into a 384-well cell plate at a density of: 1.2 × 10^4 cells/25 µL/well. The cell plate was then cultured in a 37°C, 5% CO2 incubator for about 16-20 h. • 2). Day 2: Assay Buffer was prepared according to the instructions of the FLIPR Calcium 6 Assay Kit. Component A (20×) was thawed to room temperature and diluted with the Assay Buffer to prepare a loading buffer (1×), which was stored at room temperature until use. • 3). The culture medium was removed from the cell plate. 40 µL of the loading buffer (1×) was quickly added to each well. The cell plate was then centrifuged and incubated at 37°C in the dark for 120 min. • 4). Working solutions of the positive control compound and the test compounds were prepared. An acetylcholine (Ach) agonist compound solution was prepared (final concentration: 3 nM). The PAM compound and the Ach agonist solution were mixed at a 1 : 1 ratio, and the mixture was transferred into a 384-well compound source plate at 20 µL per well. • 5). The cell plate, the compound source plate, and the pipette tips were placed into the corresponding positions within the FLIPR instrument. 10 µL of the diluted compound from step 4 was added into each experimental well using the FLIPR Tetra. Data was collected at the wavelength of 515 nm-575 nm. • 6). The signal values were plotted against the compound concentrations. Nonlinear regression analysis was performed using GraphPad Prism software for curve fitting and EC50 calculation.
The experimental results are shown in Table 1, where A represents EC50 < […]; B represents 100 nM ≤ EC50 < 500 nM, and C represents 500 nM ≤ EC50. Table 1. Agonistic activity of compounds on M4 receptor

This note sets out measurements from patent publication EP4733303A1, “MUSCARINIC M4 RECEPTOR AGONIST AND USE THEREOF” (Haisco Pharmaceutical Group Co., Ltd., priority 2023, dated 2024).

Molecules are shown by their SMILES. Some results are limits rather than exact numbers.

Consider `Cc1cc(C)c2c(n1)CN(C(=O)CC1CN(c3ccc4c(c3)C(F)C(F)C4)C1)C2` (racemic) [Compound 12, isomer 1], for which the half-maximal effective concentration (EC50) is less than 100 nM.
For `Cc1cc(C)c2c(n1)CN(C(=O)CC1CN(c3ccc4c(c3)C(F)C(F)C4)C1)C2` (racemic) [Compound 12, isomer 2], the EC50 was less than 100 nM.
`Cc1cc(C2CCOC2)nc2c1CN(C(=O)CC1CN(c3ccnc(C(F)(F)F)c3)C1)C2` (single isomer, unassigned) [Compound 152]: the EC50 is less than 100 nM.
The figure for `Cc1cc(C2CCOC2)nc2c1CN(C(=O)CC1CN(c3ccnc(C(F)(F)F)c3)C1)C2` (single isomer, unassigned) [Compound 153] is less than 100 nM.
In the case of `Cc1cc(C2CCOC2)nc2c1CN(C(=O)CC1CN(c3ccnc(OC4CC(F)(F)C4)c3)C1)C2` (single isomer, unassigned) [Compound 154], the 50% effective concentration (EC50) was less than 100 nM.
With `Cc1cc(C2CCOC2)nc2c1CN(C(=O)CC1CN(c3ccnc(OC4CC(F)(F)C4)c3)C1)C2` (single isomer, unassigned) [Compound 155] the figure was less than 100 nM; with `Cc1cc(-c2cnn(C)c2)nc2c1CN(C(=O)CC1CN(c3ccnc(OC4CC(F)C4)c3)C1)C2` (single isomer, unassigned) [Compound 156], less than 100 nM.
Turning to `Cc1ccn(-c2cc(N3CC(CC(=O)N4Cc5nc(C6CCOC6)cc(C)c5C4)C3)ccn2)n1` (single isomer, unassigned) [Compound 185], the EC50 is less than 100 nM.
As to `Cc1ccn(-c2cc(N3CC(CC(=O)N4Cc5nc(C6CCOC6)cc(C)c5C4)C3)ccn2)n1` (single isomer, unassigned) [Compound 186], the EC50 was less than 100 nM.
`Cc1cc(C2CCOC2)nc2c1CN(C(=O)CC1CN(c3ccnc(-n4ccc(F)n4)c3)C1)C2` (single isomer, unassigned) [Compound 187]: the EC50 is less than 100 nM.
The figure for `Cc1cc(C)c2c(n1)CN(C(=O)CC1CN(c3ccnc(-c4ccsc4)c3)C1)C2` [Compound 1] is less than 100 nM.
For the compound `Cc1cc(C)c2c(n1)CN(C(=O)CC1CN(c3ccnc(-c4cnn(C(F)F)c4)c3)C1)C2` [Compound 5], the EC50 is less than 100 nM.
As for `Cc1cc(C)c2c(n1)CN(C(=O)CC1CN(c3ccnc(-c4cc(C(F)(F)F)nn4C)c3)C1)C2` [Compound 6], the concentration giving a half-maximal response (EC50) is less than 100 nM.
As to `Cc1cc(C)c2c(n1)CN(C(=O)CC1CN(c3ccnc(-c4cnn(C)c4)c3)C1)C2` [Compound 7], the half-maximal effective concentration (EC50) was less than 100 nM.
As for `Cc1cc(C)c2c(n1)CN(C(=O)CC1CN(c3ccnc(-c4cc(C(F)(F)F)n(C)n4)c3)C1)C2` [Compound 14], the EC50 was less than 100 nM.
For `Cc1cc(C)c2c(n1)CN(C(=O)CC1CN(c3ccnc(-c4ccnc(C(F)(F)F)c4)c3)C1)C2` [Compound 16], the EC50 is less than 100 nM.
Turning to `Cc1cc(C)c2c(n1)CN(C(=O)CC1CN(c3ccnc(-c4cnsc4)c3)C1)C2` [Compound 21], the EC50 was less than 100 nM.
In the case of `Cc1cc(C)c2c(n1)CN(C(=O)CC1CN(c3ccnc(-c4ccnn4C)c3)C1)C2` [Compound 22], the EC50 is less than 100 nM.
As to `Cc1csc(-c2cc(N3CC(CC(=O)N4Cc5nc(C)cc(C)c5C4)C3)ccn2)c1` [Compound 23], the EC50 is less than 100 nM.
On to `Cc1cc(C)c2c(n1)CN(C(=O)CC1CN(c3ccnc(NC(=O)C4CC4)c3)C1)C2` [Compound 24], for which the EC50 was less than 100 nM.
For `Cc1cc(C)c2c(n1)CN(C(=O)CC1CN(c3ccnc(OC4CC(F)(F)C4)c3)C1)C2` [Compound 25], the EC50 is less than 100 nM.
`Cc1cc(C)c2c(n1)CN(C(=O)CC1CN(c3ccnc(-n4nccc4C)c3)C1)C2` [Compound 26]: the EC50 was less than 100 nM.
Consider `Cc1cc(C)c2c(n1)CN(C(=O)CC1CN(c3ccnc(-c4cnoc4)c3)C1)C2` [Compound 27], for which the EC50 is less than 100 nM.
For the compound `Cc1cc(C)c2c(n1)CN(C(=O)CC1CN(c3ccnc(-n4nc(C)cc4C)c3)C1)C2` [Compound 30], the half-maximal effective concentration (EC50) was less than 100 nM.
The figure for `Cc1cc(C)c2c(n1)CN(C(=O)CC1CN(c3ccnc(Oc4cnn(C(F)F)c4)c3)C1)C2` [Compound 37] is less than 100 nM.
For `Cc1cc(C)c2c(n1)CN(C(=O)CC1CN(c3ccnc(C(=O)NC4CC4)c3)C1)C2` [Compound 38], the EC50 was less than 100 nM.
With `Cc1cc(C)c2c(n1)CN(C(=O)CC1CN(c3ccnc(-c4noc(C(F)(F)F)n4)c3)C1)C2` [Compound 39], the concentration for a half-maximal effect (EC50) is less than 100 nM.
Turning to `Cc1cnn(-c2cc(N3CC(CC(=O)N4Cc5nc(C)cc(C)c5C4)C3)ccn2)c1` [Compound 40], the half-maximal effective concentration (EC50) was less than 100 nM.
For `Cc1cc(C)c2c(n1)CN(C(=O)CC1CN(c3ccnc(-n4c(C)nnc4C(F)(F)F)c3)C1)C2` [Compound 43], the EC50 was less than 100 nM.
For the compound `Cc1cc(C)c2c(n1)CN(C(=O)CC1CN(c3ccnc(-c4nc(C(F)(F)F)nn4C)c3)C1)C2` [Compound 44], the EC50 is less than 100 nM.
The figure for `Cc1cc(C)c2c(n1)CN(C(=O)CC1CN(c3ccnc(-n4cc(C(F)(F)F)nc4C)c3)C1)C2` [Compound 46] is less than 100 nM; for `Cc1cc(C)c2c(n1)CN(C(=O)CC1CN(c3ccnc(-n4cnc(C(F)(F)F)n4)c3)C1)C2` [Compound 47] it is less than 100 nM.
The figure for `Cc1cc(C)c2c(n1)CN(C(=O)CC1CN(c3cc(-n4ccc(C)n4)ncn3)C1)C2` [Compound 48] is less than 100 nM; for `Cc1cc(C)c2c(n1)CN(C(=O)CC1CN(c3ccnc(OC4CC4)c3)C1)C2` [Compound 49] it is less than 100 nM.
In the case of `Cc1ccn(-c2cc(N3CC(CC(=O)N4Cc5nc(C)cc(C)c5C4)C3)ccn2)c1` [Compound 50], the concentration giving a half-maximal response (EC50) was less than 100 nM.
For the compound `Cc1cc(C)c2c(n1)CN(C(=O)CC1CN(c3ccnc(O[C@@H]4CCOC4)c3)C1)C2` [Compound 51], the EC50 was less than 100 nM.
Regarding `Cc1cc(C)c2c(n1)CN(C(=O)CC1CN(c3ccnc(O[C@H]4CCOC4)c3)C1)C2` [Compound 52], the concentration for a half-maximal effect (EC50) is less than 100 nM.
The figure for `Cc1cc(C)c2c(n1)CN(C(=O)CC1CN(c3ccnc(Oc4cnn(C)c4)c3)C1)C2` [Compound 53] is less than 100 nM.
For `Cc1cc(C)c2c(n1)CN(C(=O)CC1CN(c3ccnc(-n4cnc(C)n4)c3)C1)C2` [Compound 54], the half-maximal effective concentration (EC50) was less than 100 nM.
As for `Cc1cc(C)c2c(n1)CN(C(=O)CC1CN(c3ccnc(-n4cc(C)c(C)n4)c3)C1)C2` [Compound 55], the EC50 is less than 100 nM.
Regarding `Cc1cc(C)c2c(n1)CN(C(=O)CC1CN(c3ccnc(-n4cccn4)c3)C1)C2` [Compound 56], the EC50 is less than 100 nM.
As to `Cc1cc(C)c2c(n1)CN(C(=O)CC1CN(c3ccnc(-n4cncn4)c3)C1)C2` [Compound 58], the EC50 was less than 100 nM.
`Cc1nc2c(c(N3CCC3)n1)CN(C(=O)CC1CN(c3ccnc(-n4nccc4C)c3)C1)C2` [Compound 62]: the EC50 was less than 100 nM.
As for `Cc1cc(C)c2c(n1)CN(C(=O)CC1CN(c3ccnc(-c4ccc5ccnn5c4)c3)C1)C2` [Compound 63], the half-maximal effective concentration (EC50) is less than 100 nM.
For `Cc1cc(C)c2c(n1)CN(C(=O)CC1CN(c3ccnc(NC4CC(F)(F)C4)c3)C1)C2` [Compound 67], the half-maximal effective concentration (EC50) was less than 100 nM.
Consider `Cc1cc(C)c2c(n1)CN(C(=O)CC1CN(c3ccnc(-n4cc(C)nc4C)c3)C1)C2` [Compound 75], for which the EC50 is less than 100 nM.
For the compound `Cc1cc(C)c2c(n1)CN(C(=O)CC1CN(c3ccnc(-n4ccc(F)n4)c3)C1)C2` [Compound 76], the EC50 is less than 100 nM.
With `Cc1coc(-c2cc(N3CC(CC(=O)N4Cc5nc(C)cc(C)c5C4)C3)ccn2)n1` [Compound 78] the figure was less than 100 nM.
With `Cc1cc(CO)nc2c1CN(C(=O)CC1CN(c3ccnc(OC4CC(F)(F)C4)c3)C1)C2` [Compound 81] the figure was less than 100 nM.
Consider `Cc1cc(C)c2c(n1)CN(C(=O)CC1CN(c3ccnc(OC4CCC(F)(F)C4)c3)C1)C2` (stereo not drawn) [Compound 83], for which the EC50 is less than 100 nM.
For the compound `Cc1ccn(-c2cc(N3CC(CC(=O)N4Cc5nc(CO)cc(C)c5C4)C3)ccn2)n1` [Compound 84], the EC50 was less than 100 nM.
The figure for `Cc1ccn(-c2cc(N3CC(CC(=O)N4Cc5nc(COC6COC6)cc(C)c5C4)C3)ccn2)n1` [Compound 85] is less than 100 nM.
As for `Cc1ccn(-c2cc(N3CC(CC(=O)N4Cc5nc(C)c6c(c5C4)CCC6)C3)ccn2)n1` [Compound 87], the concentration for a half-maximal effect (EC50) was less than 100 nM.
In the case of `Cc1ccn(-c2cc(N3CC(CC(=O)N4Cc5nc(C)nc(N(C)C)c5C4)C3)ccn2)n1` [Compound 90], the EC50 was less than 100 nM.
